Laboratory results reported in publication PMC10669340, “Bioactive Compounds from an Endophytic Pezicula sp. Showing Antagonistic Effects against the Ash Dieback Pathogen” (Biomolecules, 2023).
Values after ≈ are worked out from the molar mass of the structure shown. Read-outs that look alike come from different tables or passages of the source.

How the values were obtained:
[1] = system: Mycobacterium smegmatis ATCC 700084; test: Antimicrobial serial dilution assay (MIC); type: cell-based; details: Mycobacterium smegmatis ATCC 700084; n.i.: no inhibition
Procedure: (§1) The antimicrobial activity (minimum inhibitory concentration, MIC) of the compounds was determined against Acinetobacter baumannii DSM 30008, Bacillus subtilis DSM 10, Chromobacterium violaceum DSM 30191, Escherichia coli DSM 1116, Mycobacterium smegmatis ATCC 700084, Pseudomonas aeruginosa PA14, Staphylococcus aureus DSM 346, Candida albicans DSM1665, Mucor hiemalis DSM 2656, Pichia anomala DSM 6766, Rhodotorula glutinis DSM 10134 and Schizosaccharomyces pombe DSM 70572 in a serial dilution assay as previously described.

[2] = system: Acinetobacter baumannii DSM 30008; test: Antimicrobial serial dilution assay (MIC); type: cell-based; details: n.i.: no inhibition
Procedure: as §1

[3] = system: Chromobacterium violaceum DSM 30191; test: Antimicrobial serial dilution assay (MIC); type: cell-based; details: n.i.: no inhibition
Procedure: as §1

[4] = system: Schizosaccharomyces pombe DSM 70572; test: Antimicrobial serial dilution assay (MIC); type: cell-based; details: Schizosaccharomyces pombe DSM 70572; n.i.: no inhibition
Procedure: as §1

[5] = system: Pseudomonas aeruginosa PA14; test: Antimicrobial serial dilution assay (MIC); type: cell-based; details: n.i.: no inhibition
Procedure: as §1

[6] = system: Rhodotorula glutinis DSM 10134; test: Antimicrobial serial dilution assay (MIC); type: cell-based; details: Rhodotorula glutinis DSM 10134, n.i.: no inhibition
Procedure: as §1

[7] = system: Staphylococcus aureus DSM 346; test: Antimicrobial serial dilution assay (MIC); type: cell-based; details: Staphylococcus aureus DSM 346, n.i.: no inhibition; for MIC: DSM346, read-out: Minimum inhibitory concentration (MIC)
Procedure: as §1

[8] = system: Bacillus subtilis DSM 10; test: Antimicrobial serial dilution assay (MIC); type: cell-based; details: Bacillus subtilis DSM 10, n.i.: no inhibition; for MIC: DSM10, read-out: Minimum inhibitory concentration (MIC)
Procedure: as §1

[9] = system: Mucor hiemalis DSM 2656; test: Antimicrobial serial dilution assay (MIC); type: cell-based; details: Mucor hiemalis DSM 2656, n.i.: no inhibition; for MIC: DSM2656, read-out: Minimum inhibitory concentration (MIC)
Procedure: as §1

[10] = system: Pichia anomala DSM 6766; test: Antimicrobial serial dilution assay (MIC); type: cell-based; details: Pichia anomala DSM 6766; n.i.: no inhibition
Procedure: as §1

[11] = system: Escherichia coli DSM 1116; test: Antimicrobial serial dilution assay (MIC); type: cell-based; details: n.i.: no inhibition
Procedure: as §1

[12] = system: Candida albicans DSM1665; test: Antimicrobial serial dilution assay (MIC); type: cell-based; details: n.i.: no inhibition
Procedure: as §1

[13] = MTT cytotoxicity assay; type: cell-based; details: read-out: Cytotoxic activity (IC50)
Procedure: (§2) The in vitro cytotoxicity assay was performed using the MTT (3-(4,5-dimethylthiayol-2-yl)-2,5-diphenyltetrazolium bromide) test in 96-well microtiter plates as previously described.

[14] = system: panel of mammalian cell lines; test: MTT cytotoxicity assay, panel (summary statements); type: cell-based; details: 4–6 only KB3.1 and L929
Procedure: as §2

[15] = system: panel of bacteria and fungi; test: Antimicrobial serial dilution assay, whole panel (summary statements); type: cell-based
Procedure: as §1

[16] = system: Staphylococcus aureus DSM 1104 preformed biofilm; test: Biofilm assay, dispersal of preformed biofilm; type: cell-based; design: Antibiofilm activity, preformed S. aureus: unit not given here; details: (/) no activity
Procedure: Staphylococcus aureus DSM 1104 from −20 °C stock was cultured in 25 mL CASO (Casein–Peptone Soymeal–Peptone; peptone from casein 15 g/L, peptone from soy flour 5 g/L, NaCl 5 g/L, pH 7.3) medium at 37 °C at 100 rpm in 250 mL for 20 h. The precultured suspension of S. aureus was adjusted so that its OD600 matched the turbidity of a 0.001 McFarland standard. S. aureus was incubated in 96-well tissue microtiter plates (TPP tissue culture ref.no 92196, Switzerland) for 24 h at 150 rpm in […] CASO medium with 4% glucose broth. The supernatant was removed from the wells and 150 μL of the respective media (fresh) was added to the wells, together with the serially diluted compounds (250–2 μg/mL). The plates were incubated for a further 24 h at 37 °C. Staining of the biofilms was carried out as described previously. Standard deviation (SD) of two repeats with duplicates each were 10% or less. Methanol (2.5%) and microporenic acid A (250–2 μg/mL) were used as solvent and positive controls. Error bars indicate SD with duplicates in two biological repeats.

[17] = system: Candida albicans DSM 11225 biofilm; test: Biofilm assay, inhibition of biofilm formation; type: cell-based; details: (/) no activity
Procedure: The stock of fungal pathogen Candida albicans DSM 11225 from −20 °C was cultured in 25 mL YPD (Yeast extract Peptone Dextrose; dextrose 20 g/L, peptone 20 g/L, yeast extract 10 g/L) medium in a 250 mL flask at 30 °C with shaking 100 rpm for 18 h. Turbidity of the broth was measured and diluted to match the turbidity of a 0.05 McFarland standard in RPMI 1640 medium (Gibco, New York, NY, USA, Thermo Fisher Scientific). Afterwards, 150 μL of the fungal dispersion was added into each well of a 96-well microtiter plate (Falcon no. 351172, Thermo Fisher Scientific) and further incubated for 90 min. The supernatant was removed, and the plate was washed once by using PBS buffer. Compounds were serially diluted in 150 μL in fresh medium to concentrations of 250–2 μg/mL. Staining and analysis were conducted as previously described. Methanol (2.5%) and farnesol (250–2 μg/mL) were used as solvent and positive controls. Error bars indicate SD with duplicates in two biological repeats.

[18] = system: Fraxineus excelsior leaves; test: Phytotoxicity leaf puncture assay; details: 1 mg/mL in MeOH, 20 µL on punctured leaves, evaluated after 3 days
Procedure: The phytotoxicity of the compounds 1, 3 and 4 was assessed using the leaf puncture assay as described previously. The other compounds could not be evaluated because of the limited quantity.
For this assay, similar leaves of the same Fraxineus excelsior plant were chosen onto which the compounds were applied. The pure compounds were dissolved at 1 mg/mL in MeOH. Then, 20 µL of test samples were applied to the adaxial sides of leaves that had previously been needle punctured. A total of 20 µL of MeOH in distilled water (4%) was applied on the leaves as the negative control and 1 mg/mL macrocidin A [23] as the positive control. Each treatment was repeated three times and then the leaves were placed on moistened paper filters in petri dishes (diameter 9 cm) to prevent the droplets from drying. The experiment was run in duplicate. Leaves were evaluated for the symptoms after 3 days.

[19] = system: H. fraxineus (isolate RH02-T6-B4-2); test: Agar disc diffusion assay; type: cell-based, Hymenoscyphus fraxineus; details: 6 mm disc, 7 days, 21 °C, n.i.: no inhibition
Procedure: The antifungal activity of the isolated compounds against H. fraxineus was assessed by the disc diffusion method using 9 cm diameter petri dishes as previously described […] Three sterile filter paper discs per plate were gently placed on dried potato–dextrose agar. The fungicide nystatin was applied as the positive control (20 and 50 µg/paper disc) and methanol as the negative control (10 µL/paper disc). The test plates were incubated at 21 °C for 7 days, the inhibition diameters were measured, and the activity was evaluated compared to nystatin.
Figure S44: Agar disc (6 mm diam.) diffusion assay of compound CJ-17,572 (1) against H. fraxineus RH02-T6-B4-2, grown in 9-cm petri dishes on agar-based PD
medium with H. fraxineus, N - positive control nystatin, M - negative control methanol, CJ – 1.
Table S1. Antifungal activity of the compounds 1-6. n.i.: no inhibition, n.t.: not tested.
Compounds Amount ( µg/paper disc)
Peziculastatin n.t. n.i. 8 mm
Mycorrhizin A 19 mm 31 mm n.t.
Cryptosporioptide A n.t. n.i. n.i.
Cryptosporioptide B n.t. n.i. 8 mm
Cryptosporioptide C n.t. n.i. n.i.
Nystatin 21 mm 24 mm n.t.

[20] = human, A431 squamous cell carcinoma cells
[21] = human, A549 lung carcinoma cells
[22] = human, KB3.1 endocervical adenocarcinoma cells, n.c.: no cytotoxicity
[23] = human, MCF-7 breast adenocarcinoma cells
[24] = mouse, L929 fibroblast cells, n.c.: no cytotoxicity

Row | SMILES | Minimum inhibitory concentration (MIC) [1] | Minimum inhibitory concentration (MIC) [2] | Minimum inhibitory concentration (MIC) [3] | Minimum inhibitory concentration (MIC) [4] | Minimum inhibitory concentration (MIC) [5] | Minimum inhibitory concentration (MIC) [6] | Minimum inhibitory concentration (MIC) [7] | Minimum inhibitory concentration (MIC) [8] | Minimum inhibitory concentration (MIC) [9] | Minimum inhibitory concentration (MIC) [10] | Minimum inhibitory concentration (MIC) [11] | Minimum inhibitory concentration (MIC) [12] | IC50 [13, 20] | IC50 [13, 21] | IC50 [13, 22] | IC50 [13, 23] | IC50 [13, 24] | cytotoxicity against the tested cell lines (in words) [14] | antimicrobial activity against the tested microorganisms (in words) [15] | Antifungal activity, inhibition diameter ([19]; 50 µg/paper disc) | other results
1 | COC1=C(C(=O)[C@@]2(C)[C@@H](C)C=C[C@H]3C[C@@H](C)CC[C@@H]32)C(=O)[C@H]([C@@H](C)O)N1C [Compound 8, 2′-methyl-CJ-17,572] | n.i. | n.i. | n.i. | n.i. | n.i. | n.i. | n.i. | n.i. | n.i. | n.i. | n.i. | n.i. | 20 µM | 35 µM | 15 µM | 1.8 µM | 43 µM | active against all the tested cell lines | did not show any activity | – | IC50 ([13]; human, PC-3 prostate cancer cells): 18 µM; IC50 ([13]; human, SKOV-3 ovarian carcinoma cells): 21 µM
2 | CC12Oc3ccc(-c4ccc5c(c4O)C(=O)C4=C(O)C6OC6(C)C(OC(=O)CC(=O)O)C4(C)O5)c(O)c3C(=O)C1=C(O)C1OC1(C)C2OC(=O)CC(=O)O (stereo not drawn) [Compound 4, Cryptosporioptide A] | n.i. | n.i. | n.i. | n.i. | n.i. | n.i. | n.i. | n.i. | n.i. | n.i. | n.i. | n.i. | – | – | – | – | – | – | – | n.i. | Antibiofilm activity, preformed S. aureus ([16]; 62.5 µg/mL): 70; Antibiofilm activity, preformed S. aureus ([16]; 125 µg/mL): 73; Antibiofilm activity, preformed S. aureus ([16]; 250 µg/mL): 80; Antibiofilm activity, C. albicans ([17]; 31.3 µg/mL): 39; Antibiofilm activity, C. albicans ([17]; 62.5 µg/mL): 71; Antibiofilm activity, C. albicans ([17]; 125 µg/mL): 71; Antibiofilm activity, C. albicans ([17]; 250 µg/mL): 81; phytotoxic activity, leaf puncture assay [18]: brownish lesions; Antifungal activity, inhibition diameter ([19]; 100 µg/paper disc): n.i.
3 | CCCCCCC(C)/C=C/C=C/C=C/C(=O)N[C@H](C(=O)O)[C@H](O)c1ccccc1O (relative stereo) [Compound 2, peziculastatin] | n.i. | n.i. | n.i. | n.i. | n.i. | – | – | – | – | n.i. | n.i. | n.i. | 53 µM | 41 µM | 17 µM | 11 µM | 53 µM | – | moderate to weak antifungal activity | n.i. | MIC ([6]; DSM10134, read-out: Minimum inhibitory concentration (MIC)): 33.3 µg/mL (≈ 80.1 µM); MIC [7]: 16.6 µg/mL (≈ 39.9 µM); MIC [8]: 33.3 µg/mL (≈ 80.1 µM); MIC [9]: 33.3 µg/mL (≈ 80.1 µM); Antifungal activity, inhibition diameter ([19]; 100 µg/paper disc): 8 mm
4 | COC1=C(C(=O)[C@@]2(C)[C@@H](C)C=C[C@H]3C[C@@H](C)CC[C@@H]32)C(=O)N(C)[C@H]1[C@@H](C)O [Compound 7, 4′-methyl-CJ-17,572] | n.i. | n.i. | n.i. | n.i. | n.i. | n.i. | – | – | – | n.i. | n.i. | n.i. | – | – | – | – | – | active against all the tested cell lines | weak antimicrobial activity | – | MIC [7]: 33.3 µg/mL (≈ 88.7 µM); MIC [8]: 8.3 µg/mL (≈ 22.1 µM); MIC [9]: 66.6 µg/mL (≈ 177 µM); IC50 ([13]; human, A431): 24 µM; IC50 ([13]; human, A549): 10 µM; IC50 ([13]; human, KB3.1, n.c.: no cytotoxicity): 6.4 µM; IC50 ([13]; human, MCF-7): 9.6 µM; IC50 ([13]; human, PC-3): 9.1 µM; IC50 ([13]; human, SKOV-3): 14 µM; IC50 ([13]; mouse, L929, n.c.: no cytotoxicity): 32 µM
